# Results from patent publication US8530507B2, “Use of levo-ornidazole in the preparation of anti-anaerobic bacteria infection drugs” (priority 2005, dated 2013).
# Where two headings read alike, the source gives them in different places.
# Key:
# Kunming mice [1] = assay: Acute toxicology test, LD50 in mice (Bliss method); assay type: in vivo; conditions: for LD50: observed 14 days; for Number of dead animals: 10 animals
# Procedure: (§1) Kunming mice, half males and half females, with body weights of 18˜22 g, were administered the testing drug solution by injection 8 hours after fasting. The death status of animals was consecutively observed for 14 days after administration.
# Beagle dogs = conditions: dog, in vivo, iv, 200 mg/kg
# Description: 2. Toxicity Test in Beagle Dogs (Non-Rodent) After Intravenous Administration of L-ornidazole for Two Weeks
# Beagle dogs, 4 dogs in each group with half females and half males, were divided into L-, D-, and racemic ornidazole groups.
# mice [2] = assay: Effect on the coordination of balancing in mice; assay type: in vivo; conditions: intravenous injection; for effect on the coordination and balance (number of falling animals): 160 mg/kg; for effect on the coordination and balance, compared with the vehicle control group: doses of 40 and 80 mg/kg
# Procedure: Experiments were conducted in 9 administration groups, L-, D- and racemic ornidazole were administered to them at doses of 40, 80 and 160 mg/kg. Positive control group received chlorpromazine at a dose of 3 mg/kg.
# Kunming mice [3] = assay: Acute toxicology test, LD50 in mice (Bliss method); assay type: in vivo; conditions: oral gavage; for Number of dead animals: 10 animals; for Probability units (Y): 1600 mg/kg
# [4] = Acute toxicology test, LD50 in mice (Bliss method); assay type: in vivo; conditions: both sexes, Kunming, mouse, in vivo, read-out: 95% confidence interval (CI) of LD50
# Procedure: as §1
# mice [5] = conditions: mouse, in vivo, 40 mg/kg
# Procedure: The same volume of 0.9% sodium chloride injection containing propylene glycol was administered in the vehicle control group. 30 minute after drug administration, 40 mg/kg of sodium thiopental was administered to mice by intraperitoneal injection. The time for the loss of righting reflex and the time for the recovery were recorded. The injection volume was 0.2 ml/10 g, the administration rate was 0.2 ml/10 sec.
compound,measurement,setting,value
"Cc1ncc([N+](=O)[O-])n1C[C@H](O)CCl [L-ornidazole, 1-(3-chloro-2-S-(−)-hydroxypropyl)-2-methyl-5-nitroimidazole]",LD50,Kunming mice [1]; intraperitoneal injection,1378 mg/kg
same,Death rate,"Kunming mice [1]; intraperitoneal, 1044 mg/kg",0%
same,Probability units (Y),"Kunming mice [1]; intraperitoneal, 1044 mg/kg",3.27
same,Number of dead animals,"Kunming mice [1]; intraperitoneal, 1044 mg/kg",0
same,Death rate,"Kunming mice [1]; intraperitoneal, 1228 mg/kg",30%
same,Probability units (Y),"Kunming mice [1]; intraperitoneal, 1228 mg/kg",4.24
same,Number of dead animals,"Kunming mice [1]; intraperitoneal, 1228 mg/kg",3
same,Death rate,"Kunming mice [1]; intraperitoneal, 1445 mg/kg",60%
same,Probability units (Y),"Kunming mice [1]; intraperitoneal, 1445 mg/kg",5.20
same,Number of dead animals,"Kunming mice [1]; intraperitoneal, 1445 mg/kg",6
same,Death rate,"Kunming mice [1]; intraperitoneal, 1700 mg/kg",90%
same,Probability units (Y),"Kunming mice [1]; intraperitoneal, 1700 mg/kg",6.17
same,Number of dead animals,"Kunming mice [1]; intraperitoneal, 1700 mg/kg",9
same,Death rate,"Kunming mice [1]; intraperitoneal, 2000 mg/kg",100%
same,Probability units (Y),"Kunming mice [1]; intraperitoneal, 2000 mg/kg",7.13
same,Number of dead animals,"Kunming mice [1]; intraperitoneal, 2000 mg/kg",10
same,LD50,Kunming mice [1]; intravenous injection,332 mg/kg
same,Death rate,"Kunming mice [1]; intravenous, 243 mg/kg",0%
same,Probability units (Y),"Kunming mice [1]; intravenous, 243 mg/kg",1.06
same,Number of dead animals,"Kunming mice [1]; intravenous, 243 mg/kg",0
same,Death rate,"Kunming mice [1]; intravenous, 270 mg/kg",0%
same,Probability units (Y),"Kunming mice [1]; intravenous, 270 mg/kg",3.04
same,Number of dead animals,"Kunming mice [1]; intravenous, 270 mg/kg",0
same,Death rate,"Kunming mice [1]; intravenous, 300 mg/kg",20%
same,Probability units (Y),"Kunming mice [1]; intravenous, 300 mg/kg",3.72
same,Number of dead animals,"Kunming mice [1]; intravenous, 300 mg/kg",2
same,Death rate,"Kunming mice [1]; intravenous, 333 mg/kg",30%
same,Probability units (Y),"Kunming mice [1]; intravenous, 333 mg/kg",5.05
same,Number of dead animals,"Kunming mice [1]; intravenous, 333 mg/kg",3
same,Death rate,"Kunming mice [1]; intravenous, 370 mg/kg",100%
same,Probability units (Y),"Kunming mice [1]; intravenous, 370 mg/kg",6.38
same,Number of dead animals,"Kunming mice [1]; intravenous, 370 mg/kg",10
same,Death rate,"Kunming mice [1]; oral gavage, 655.4 mg/kg",0%
same,Probability units (Y),"Kunming mice [1]; oral gavage, 655.4 mg/kg",2.87
same,Death rate,"Kunming mice [1]; oral gavage, 819.2 mg/kg",10%
same,Probability units (Y),"Kunming mice [1]; oral gavage, 819.2 mg/kg",3.86
same,Death rate,"Kunming mice [1]; oral gavage, 1024 mg/kg",40%
same,Probability units (Y),"Kunming mice [1]; oral gavage, 1024 mg/kg",4.86
same,Probability units (Y),"Kunming mice [1]; oral gavage, 1280 mg/kg",5.86
same,Death rate,"Kunming mice [1]; oral gavage, 1600 mg/kg",100%
same,Number of dead animals,"Kunming mice [1]; oral gavage, 1600 mg/kg",10
same,LD50,Kunming mice [1]; oral gavage,1069 mg/kg
same,food intake and body weight,Beagle dogs,Food intake of testing animals was inhibited while body weight of the testing animals was inhibited to a certain extent
same,histological examination of organs,Beagle dogs,Significant pathological changes were not found
same,manifestations (toxicity and side effects),Beagle dogs,"merely drooling, vomiting, involuntary urination and the like"
same,recovery time of manifestations,Beagle dogs,1 to 2 h
same,toxic effects,Beagle dogs,significant toxic effects were not observed
same,effect on the coordination and balance (number of falling animals),mice [2],no significant effect
same,"effect on the coordination and balance, compared with the vehicle control group",mice [2],no significant effect
same,Number of dead animals,Kunming mice [3]; 655.4 mg/kg,0
same,Number of dead animals,Kunming mice [3]; 819.2 mg/kg,1
same,Number of dead animals,Kunming mice [3]; 1024 mg/kg,4
same,Death rate,Kunming mice [3]; 1280 mg/kg,80%
same,Number of dead animals,Kunming mice [3]; 1280 mg/kg,8
same,Probability units (Y),Kunming mice [3],6.96
"Cc1ncc([N+](=O)[O-])n1CC(O)CCl (racemic) [racemic ornidazole, ornidazole]",LD50 at 14 days,[4]; intravenous injection,272 to 346 mg/kg
same,LD50 at 14 days,"[4]; ip, intraperitoneal injection",1030 to 1210 mg/kg
same,LD50 at 14 days,[4]; oral gavage,674 to 878 mg/kg
same,Death rate,"Kunming mice [1]; intraperitoneal, 887.4 mg/kg",0%
same,Probability units (Y),"Kunming mice [1]; intraperitoneal, 887.4 mg/kg",3.39
same,Number of dead animals,"Kunming mice [1]; intraperitoneal, 887.4 mg/kg",0
same,Death rate,"Kunming mice [1]; intraperitoneal, 1044 mg/kg",30%
same,Probability units (Y),"Kunming mice [1]; intraperitoneal, 1044 mg/kg",4.42
same,Number of dead animals,"Kunming mice [1]; intraperitoneal, 1044 mg/kg",3
same,Death rate,"Kunming mice [1]; intraperitoneal, 1228 mg/kg",80%
same,Probability units (Y),"Kunming mice [1]; intraperitoneal, 1228 mg/kg",5.46
same,Number of dead animals,"Kunming mice [1]; intraperitoneal, 1228 mg/kg",8
same,Death rate,"Kunming mice [1]; intraperitoneal, 1445 mg/kg",100%
same,Probability units (Y),"Kunming mice [1]; intraperitoneal, 1445 mg/kg",6.49
same,Number of dead animals,"Kunming mice [1]; intraperitoneal, 1445 mg/kg",10
same,Death rate,"Kunming mice [1]; intraperitoneal, 1700 mg/kg",100%
same,Probability units (Y),"Kunming mice [1]; intraperitoneal, 1700 mg/kg",7.52
same,Number of dead animals,"Kunming mice [1]; intraperitoneal, 1700 mg/kg",10
same,Death rate,"Kunming mice [1]; intravenous, 243 mg/kg",0%
same,Probability units (Y),"Kunming mice [1]; intravenous, 243 mg/kg",3.22
same,Number of dead animals,"Kunming mice [1]; intravenous, 243 mg/kg",0
same,Death rate,"Kunming mice [1]; intravenous, 270 mg/kg",30%
same,Probability units (Y),"Kunming mice [1]; intravenous, 270 mg/kg",4.06
same,Number of dead animals,"Kunming mice [1]; intravenous, 270 mg/kg",3
same,Death rate,"Kunming mice [1]; intravenous, 300 mg/kg",50%
same,Probability units (Y),"Kunming mice [1]; intravenous, 300 mg/kg",4.90
same,Number of dead animals,"Kunming mice [1]; intravenous, 300 mg/kg",5
same,Death rate,"Kunming mice [1]; intravenous, 333 mg/kg",50%
same,Probability units (Y),"Kunming mice [1]; intravenous, 333 mg/kg",5.73
same,Number of dead animals,"Kunming mice [1]; intravenous, 333 mg/kg",5
same,Death rate,"Kunming mice [1]; intravenous, 370 mg/kg",100%
same,Probability units (Y),"Kunming mice [1]; intravenous, 370 mg/kg",6.57
same,Number of dead animals,"Kunming mice [1]; intravenous, 370 mg/kg",10
same,Death rate,"Kunming mice [1]; oral gavage, 655.4 mg/kg",0%
same,Probability units (Y),"Kunming mice [1]; oral gavage, 655.4 mg/kg",3.20
same,Death rate,"Kunming mice [1]; oral gavage, 819.2 mg/kg",20%
same,Probability units (Y),"Kunming mice [1]; oral gavage, 819.2 mg/kg",4.20
same,Death rate,"Kunming mice [1]; oral gavage, 1024 mg/kg",70%
same,Probability units (Y),"Kunming mice [1]; oral gavage, 1024 mg/kg",5.19
same,Probability units (Y),"Kunming mice [1]; oral gavage, 1280 mg/kg",6.19
same,Death rate,"Kunming mice [1]; oral gavage, 1600 mg/kg",100%
same,Number of dead animals,"Kunming mice [1]; oral gavage, 1600 mg/kg",10
same,number of Purkinje cells in cerebellum (histological examination),Beagle dogs,No reduction in the number of Purkinje cells and cellular degeneration was observed
same,effect on the coordination and balance (number of falling animals),mice [2],significant effect
same,"effect on the coordination and balance, compared with the vehicle control group",mice [2],no significant effect
same,"duration of sleeping induced by sodium thiopental, compared with the vehicle control group",mice [5],significantly extended
same,Number of dead animals,Kunming mice [3]; 655.4 mg/kg,0
same,Number of dead animals,Kunming mice [3]; 819.2 mg/kg,2
same,Number of dead animals,Kunming mice [3]; 1024 mg/kg,7
same,Death rate,Kunming mice [3]; 1280 mg/kg,90%
same,Number of dead animals,Kunming mice [3]; 1280 mg/kg,9
same,Probability units (Y),Kunming mice [3],7.19
